SMILES strings stand for the structures.

One assay addresses KRAS^G12C (Homo sapiens, UniProt P01116, G12C). The assay is described as follows: KRAS G12C activation by SOS1cat assay (On-assay), HTRF. As to conditions: SOS1cat mediated loading of GST-KRAS G12C-GDP with fluorescent GTP analogue; 180 min preincubation; 20° C.; read-out: IC50 value biochemical KRAS^G12C activation assay. On the procedure:
(§1) Preparation of test compound dilutions. A 100-fold concentrated solution of the test compound (50 nL) in DMSO was transferred to microtiter test plates (384 or 1,536 wells, Greiner Bio-One, Germany) using either a Hummingbird liquid handler (Digilab, MA, USA) or an Echo acoustic system (Labcyte, CA, USA). Plates were sealed with adhesive foil or heat-sealed and stored at −20° C. until use. Serial dilutions of test compounds were prepared in 100% DMSO using a Precision Pipetting System (BioTek, USA).
(§2) Measurement and evaluation of inhibition data, calculation of IC50 values. Homogeneous time-resolved fluorescence (HTRF) was measured with a PHERAstar reader (BMG, Germany) using the HTRF module (excitation: 337 nm; emission 1: 620 nm, emission 2: 665 nm). The ratio of the emissions at 665 and 620 nm was used as the specific signal for further evaluation. The data were normalized using the controls: DMSO=0% inhibition, inhibition control wells with inhibitor control solution=100% inhibition. Compounds were tested in duplicates at up to 11 concentrations (e.g. 20 μM, 5.7 μM, 1.6 μM, 0.47 μM, 0.13 μM, 38 nM, 11 nM, 3.1 nM, 0.89 nM, 0.25 nM and 0.073 nM). IC50 values were calculated using a four-parameter fit, with a commercial software package (Genedata Screener, Switzerland).
(§3) KRAS^G12C activation by SOS1^cat assay (“On-assay”). This assay quantifies SOS1^cat mediated loading of KRAS^G12C-GDP with a fluorescent GTP analogue. Detection of successful loading was achieved by measuring resonance energy transfer from anti-GST-terbium (FRET donor) bound to GST-KRAS^G12c to the loaded fluorescent GTP analogue (FRET acceptor). The fluorescent GTP analogue EDA-GTP-DY-647P1 [2′/3′-O-(2-aminoethyl-carbamoyl)guanosine-5′-triphosphate labelled with DY-647P1 (Dyomics GmbH, Germany)] was synthesized by Jena Bioscience (Germany) and supplied as a 1 mM aqueous solution. A KRAS^G12C working solution was prepared in assay buffer [10 mM HEPES pH 7.4 (AppliChem), 150 mM NaCl (Sigma), 5 mM MgCl2 (Sigma), 1 mM DTT (Thermo Fisher), 0.05% BSA Fraction V pH 7.0 (ICN Biomedicals), 0.0025% (v/v) Igepal (Sigma)] containing 100 nM GST-KRAS^G12C and 2 nM anti-GST-terbium (Cisbio, France). A SOS1^cat working solution was prepared in assay buffer containing 20 nM SOS1^cat and 200 nM EDA-GTP-DY-647P1. An inhibitor control solution was prepared in assay buffer containing 200 nM EDA-GTP-DY-647P1 without SOS1^cat. All steps of the assay were performed at 20° C. A volume of 2.5 μL of the KRAS^G12C working solution was added to all wells of the test plate using a Multidrop dispenser (Thermo LabSystems). After 180 min, 2.5 μL of the SOS1^cat working solution was added to all wells, except for the inhibitor control solution wells. After 30 min incubation, HTRF was measured.
In general terms: Time-resolved FRET reads energy transfer from a long-lived donor to a nearby acceptor.

Assay [1] concerns the target recombinant kRas mutant (G12C; C51S; C80L; C118S) (Homo sapiens, UniProt P01116, C118S/C51S/C80L/G12C). The experiment in a line: Covalent binding assay, intact mass LC-MS. As to conditions: 25 μM protein, 25 μM compound, room temperature, 2 h. On the procedure:
The percentage of covalent adduct formation at KRas G12C was determined by intact mass determination. To this end 25 μM recombinant kRas mutant (G12C; C51S; C80L; C118S) (storage buffer: 50 mM Tris, pH=8; 50 mM NaCl) were incubated with 25 μM of compound (1% v/v final DMSO concentration) at room temperature for 2 h. For LC-MS analysis the reaction was acidified by adding 4 μL of 4% v/v TFA to 20 μL reaction volume.
Liquid chromatography-mass spectrometry (LC-MS) analysis was performed using a Waters SYNAPT G2-S quadrupole time-of-flight mass spectrometer connected to a Waters nanoAcquity UPLC system. Samples were loaded on a 2.1×5 mm mass prep C4 guard column (Waters) and desalted with a short gradient (3 min.) of increasing concentrations of acetonitrile at a flow rate of 100 μL/min. Spectra were analyzed by using MassLynx v4.1 software and deconvoluted with the MaxEnt1 algorithm.
Percent conversion was determined by the ratio of signal intensities of apo-kRas and kRas+inhibitor.

For a further assay, the target named is KRAS^WT (Homo sapiens, UniProt P01116). The assay is described as follows: Wild-type KRAS activation by SOS1cat assay, HTRF. Particulars: SOS1cat mediated loading of GST-KRAS WT-GDP with fluorescent GTP analogue; 50 nM GST-KRAS WT; read-out: IC50 value biochemical KRAS^wt activation assay. On the procedure:
as §1, §2, §3
Wild-type KRAS activation by SOS1^cat assay. This assay quantifies human SOS1^cat mediated loading of wild-type GST-KRAS^WT-GDP with a fluorescent GTP analogue. The assay was performed similar to the KRAS^G12C activation by SOS1^cat assay. GST-KRAS^G12C was replaced by GST-KRAS^WT, which was used at 50 nM final concentration.

In general, IC50 refers to the point on the concentration scale where inhibition reaches its midpoint. For `C=CC(=O)N1CCC(c2cc3ncc(-c4cc(O)ccc4F)cc3c(=O)[nH]2)C1` (stereo not drawn) [Example 36, 3-(2-Fluoro-5-hydroxyphenyl)-7-[1-(prop-2-enoyl)pyrrolidin-3-yl]-1,6-naphthyridin-5(6H)-one], the IC50 was 2.7 µM at KRAS^G12C and greater than 20 µM on KRAS^WT. Further, the “Covalent Binding Assay (% binding)” value in assay [1] is recorded as 85%.
For `C=CC(=O)N1CCC(c2cc3ncc(-c4c(F)cccc4OC)cc3c(=O)[nH]2)C1` (stereo not drawn) [Example 28, 3-(2-Fluoro-6-methoxyphenyl)-7-[1-(prop-2-enoyl)pyrrolidin-3-yl]-1,6-naphthyridin-5(6H)-one], in that order: 10 µM, greater than 20 µM and 52%.
For the molecule `C=CC(=O)N1CCC(c2nc3ccc(-c4cccc5ncccc45)cc3c(=O)[nH]2)C1` (stereo not drawn) [Example 14, 2-[1-(Prop-2-enoyl)pyrrolidin-3-yl]-6-(quinolin-5-yl)quinazolin-4(3H)-one], the IC50 at KRAS^G12C and at KRAS^WT was greater than 20 µM each time. In addition, the “Covalent Binding Assay (% binding)” value in assay [1] is recorded as 22%.
Turning to `C=CC(=O)N1CCC(c2nc3ccc(-c4cccnc4N4CCOCC4)cc3c(=O)[nH]2)C1` (stereo not drawn) [Example 20, 6-[2-(Morpholin-4-yl)pyridin-3-yl]-2-[1-(prop-2-enoyl)pyrrolidin-3-yl]quinazolin-4(3H)-one], the IC50 at KRAS^G12C and on KRAS^WT was greater than 20 µM each time. In assay [1], the “Covalent Binding Assay (% binding)” value is reported as 3%.
Regarding `C=CC(=O)N1CCC(c2cc3ncc(-c4ccc(F)c(O)c4)cc3c(=O)[nH]2)C1` (stereo not drawn) [Example 37, 3-(4-Fluoro-3-hydroxyphenyl)-7-[1-(prop-2-enoyl)pyrrolidin-3-yl]-1,6-naphthyridin-5(6H)-one], the IC50 at KRAS^G12C and at KRAS^WT was greater than 20 µM each time. Also, the “Covalent Binding Assay (% binding)” value in assay [1] came out at 21%.
On to `C=CC(=O)N1CCC(c2cc3ccc(-c4cccc5[nH]ccc45)cc3c(=O)[nH]2)C1` (stereo not drawn) [Example 3, 7-(1H-Indol-4-yl)-3-[1-(prop-2-enoyl)pyrrolidin-3-yl]isoquinolin-1(2H)-one], for which the IC50 at KRAS^G12C and on KRAS^WT was greater than 20 µM each time. Moreover, the “Covalent Binding Assay (% binding)” value in assay [1] is reported as 8%.
In the case of `C=CC(=O)N1CCC(c2nc3cc(Cl)c(-c4c(O)cccc4F)cc3c(=O)[nH]2)C1` (stereo not drawn) [Example 24, 7-Chloro-6-(2-fluoro-6-hydroxyphenyl)-2-[1-(prop-2-enoyl)pyrrolidin-3-yl]quinazolin-4(3H)-one], the figures for the IC50 on KRAS^G12C and at KRAS^WT were 9.1 µM and greater than 20 µM, respectively. Moreover, the “Covalent Binding Assay (% binding)” value in assay [1] turned out to be 53%.
The like results for `C=CC(=O)N1CCC(c2nc3cc(Cl)c(-c4ccccc4F)cc3c(=O)[nH]2)C1` (stereo not drawn) [Example 22, 7-Chloro-6-(2-fluorophenyl)-2-[1-(prop-2-enoyl)pyrrolidin-3-yl]quinazolin-4(3H)-one] were, in that order, 18 µM, greater than 20 µM and 31%.
For `C=CC(=O)N1CCC(c2nc3cc(Cl)c(-c4ccc(F)cc4F)cc3c(=O)[nH]2)C1` (stereo not drawn) [Example 23, 7-Chloro-6-(2,4-difluorophenyl)-2-[1-(prop-2-enoyl)pyrrolidin-3-yl]quinazolin-4(3H)-one], in that order: greater than 20 µM, greater than 20 µM and 34%.
`C=CC(=O)N1CCC(c2nc3ccc(-c4c(O)cccc4F)nc3c(=O)[nH]2)C1` (stereo not drawn) [Example 38, 6-(2-Fluoro-6-hydroxyphenyl)-2[1-(prop-2-enoyl)pyrrolidin-3-yl]pyrido[3,2-d]pyrimidin-4(3H)-one]: the IC50 at KRAS^G12C and on KRAS^WT was greater than 20 µM each time. In assay [1], the “Covalent Binding Assay (% binding)” value was determined as 0%.
`C=CC(=O)N1CCC(c2cc3ncc(-c4ccccc4CC)cc3c(=O)[nH]2)C1` (stereo not drawn) [Example 33, 3-(2-Ethylphenyl)-7-[1-(prop-2-enoyl)pyrrolidin-3-yl]-1,6-naphthyridin-5(6H)-one]: the values for the IC50 at KRAS^G12C and on KRAS^WT were 6.8 µM and greater than 20 µM, respectively. Moreover, the “Covalent Binding Assay (% binding)” value in assay [1] was 60%.
Take `C=CC(=O)N1CCC(c2nc3ccc(-c4c(F)cccc4OC)cc3c(=O)[nH]2)C1` (stereo not drawn) [Example 11]: the IC50 was 16 µM at KRAS^G12C and greater than 20 µM on KRAS^WT. The “Covalent Binding Assay (% binding)” value in assay [1] was found to be 41%.
For `C=CC(=O)N1CCC(c2cc3ccc(-c4ccc(F)c(OCC)c4F)cc3c(=O)[nH]2)C1` (stereo not drawn) [Example 6, 7-(3-Ethoxy-2,4-difluorophenyl)-3-[1-(prop-2-enoyl)pyrrolidin-3-yl]isoquinolin-1(2H)-one], in that order: greater than 20 µM, greater than 20 µM and 3%.
With `C=CC(=O)N1CCC(c2cc3ncc(-c4sc(C)nc4C)cc3c(=O)[nH]2)C1` (stereo not drawn) [Example 34, 3-(2,4-Dimethyl-1,3-thiazol-5-yl)-7-[1-(prop-2-enoyl)pyrrolidin-3-yl]-1,6-naphthyridin-5(6H)-one], the 50% inhibitory concentration (IC50) on KRAS^G12C and at KRAS^WT was greater than 20 µM in each case. Besides, the “Covalent Binding Assay (% binding)” value in assay [1] is on record as 0%.
Turning to `C=CC(=O)N1CCC(c2nc3cc(Cl)c(-c4c(C)ccc5[nH]ncc45)cc3c(=O)[nH]2)C1` (stereo not drawn) [Example 25, 7-Chloro-6-(5-methyl-1H-indazol-4-yl)-2-[1-(prop-2-enoyl)pyrrolidin-3-yl]quinazolin-4(3H)-one], the figures for the IC50 on KRAS^G12C and on KRAS^WT were 5 µM and greater than 20 µM, respectively. The “Covalent Binding Assay (% binding)” value in assay [1] came to 81%.
Turning to `C=CC(=O)N1CCC(c2nc3cnc(-c4c(C)ccc5[nH]ncc45)cc3c(=O)[nH]2)C1` (stereo not drawn) [Example 40, 6-(5-Methyl-1H-indazol-4-yl)-2-[1-(prop-2-enoyl)pyrrolidin-3-yl]pyrido[3,4-d]pyrimidin-4(3H)-one], the figures for the 50% inhibitory concentration (IC50) on KRAS^G12C and at KRAS^WT were 4.7 µM and greater than 20 µM, respectively. Moreover, the “Covalent Binding Assay (% binding)” value in assay [1] was determined as 66%.
The like results for `C=CC(=O)N1CCC(c2cc3cc(O)c(-c4ncccc4F)cc3c(=O)[nH]2)C1` (stereo not drawn) [Example 10, 3-(1-Acryloylpyrrolidin-3-yl)-7-(3-fluoropyridin-2-yl)-6-hydroxy-isoquinolin-1(2H)-one] were, in that order, greater than 20 µM, greater than 20 µM and 0%.
Consider `C=CC(=O)N1CCC(c2nc3ccc(-c4ccc(F)cc4F)cc3c(=O)[nH]2)C1` (stereo not drawn) [Example 13, 6-(2,4-Difluorophenyl)-2-[1-(prop-2-enoyl)pyrrolidin-3-yl]quinazolin-4(3H)-one], for which the IC50 on KRAS^G12C is 8.4 µM; at KRAS^WT, greater than 20 µM. Moreover, in assay [1], the “Covalent Binding Assay (% binding)” value was found to be 57%.

For the origin of these results see patent publication US20220227729A1, “IDENTIFICATION AND USE OF KRAS INHIBITORS” (Bayer Aktiengesellschaft, priority 2019, published 2022).
